The values below come from article PMC12040169 (PLOS Biology, 2025).

The data set in a line: in vitro. The settings on record: human, hela cells, % viability.
In the case of `CC1CCN(Cc2ccc(-c3nnn(CC(=O)NCc4ccc([N+](=O)[O-])cc4)n3)cc2)CC1` [CBK144176C], the viability at 28.5 h, 10 µM was 101%.
As for `O=C(O)CN1CCC(Oc2nccnc2OCc2ccc(Cl)c(Cl)c2)CC1` [CBK144443], the figure is 97%; as for `CS(=O)(=O)c1ccc(Cn2ccnc(N3CCC(Sc4ccccc4)CC3)c2=O)cc1` [CBK144444], 84.2%; as for `CN(C)CCCC(=O)N1CCN(C(=O)c2ccco2)CC1` [CBK144445], 111%.
As for `O=C(Cc1ccsc1)N1CCN(C(=O)c2ccco2)CC1` [CBK144446], the figure is 86%; as for `Cc1cc(C(=O)N2CCN(C(=O)c3ccco3)CC2)n[nH]1` [CBK144447], 98.9%.
Consider `O=C(Cc1c[nH]cn1)N1CCN(C(=O)c2ccco2)CC1` [CBK144448], for which the viability at 28.5 h, 10 µM came out at 91.9%.
As for `CN1CCC[C@H]1C(=O)N1CCN(C(=O)c2ccco2)CC1` [CBK144449], the figure is 94.5%; as for `O=C(Cc1ccc(Cl)c(Cl)c1)N1CCN(C(=O)c2ccco2)CC1` [CBK144454], 95.2%.
Next, `O=C(/C=C/c1ccc2c(c1)OCO2)N1CCN(C(=O)c2ccco2)CC1` [CBK144459]: 95.1%; `O=C(c1ccc2ncccc2c1)N1CCN(C(=O)c2ccco2)CC1` [CBK144461]: 94%.
As for `O=C1CC(C(=O)N2CCN(C(=O)c3ccco3)CC2)c2ccccc21` (stereo not drawn) [CBK144464], the figure is 105%; as for `Cc1cc(CC(=O)N2CCN(C(=O)c3ccco3)CC2)on1` [CBK144465], 96.3%.
As to `CSCCC(=O)N1CCN(C(=O)c2ccco2)CC1` [CBK144468], the viability at 28.5 h, 10 µM was 93.5%.
Next, `Cc1cn(CC(=O)N2CCN(C(=O)c3ccco3)CC2)c(=O)[nH]c1=O` [CBK144472]: 87.7%.
As for `CN1CCN(CCC(=O)N2CCN(C(=O)c3ccco3)CC2)CC1` [CBK144481], the figure is 89.3%; as for `COc1cc(CN2CCNCC2)c2ccn(S(=O)(=O)c3ccccc3Cl)c2c1` [CBK144483T], 91.9%; as for `COc1cc(CN2CCNCC2)c2ccn(S(=O)(=O)c3ccccc3C#N)c2c1` [CBK144486T], 89.4%.
Consider `O=C(Cc1ccc(Cl)c(Cl)c1)N1CCN(c2ncccn2)CC1` [CBK144497], for which the viability at 28.5 h, 10 µM is 98%.
As for `O=C(c1ccc2[nH]ccc2c1)N1CCN(c2ncccn2)CC1` [CBK144500], the figure is 87%; as for `O=C(/C=C/c1ccc2c(c1)OCO2)N1CCN(c2ncccn2)CC1` [CBK144501], 89.5%.
With `O=C(C1COc2ccccc2O1)N1CCN(c2ncccn2)CC1` (stereo not drawn) [CBK144502], the viability at 28.5 h, 10 µM was 116%.
For the compound `O=C1CC(C(=O)N2CCN(c3ncccn3)CC2)c2ccccc21` (stereo not drawn) [CBK144505], the viability at 28.5 h, 10 µM was 99.2%.
Turning to `Cc1cc(CC(=O)N2CCN(c3ncccn3)CC2)on1` [CBK144507], the viability at 28.5 h, 10 µM was found to be 90%.
Take `Cc1cn(CC(=O)N2CCN(c3ncccn3)CC2)c(=O)[nH]c1=O` [CBK144513]: the viability at 28.5 h, 10 µM turned out to be 105%.
As for `O=C(Cc1ccccc1)N1CCN(c2ncccn2)CC1` [CBK144518], the figure is 116%; as for `CN1CCN(CCC(=O)N2CCN(c3ncccn3)CC2)CC1` [CBK144520], 84.5%.
Turning to `CN(C)CCCC(=O)N1CCN(c2ncccn2)CC1` [CBK144523], the viability at 28.5 h, 10 µM is 116%.
Next, `O=C(c1ccco1)N1CCN(c2ncccn2)CC1` [CBK144524]: 111%.
Next, `O=C(Cc1ccsc1)N1CCN(c2ncccn2)CC1` [CBK144525]: 105%; `Cc1cc(C(=O)N2CCN(c3ncccn3)CC2)n[nH]1` [CBK144526]: 111%; `Cc1ccc(CNC(=O)Cn2nnc(-c3ccc(CN4CCCC(C(F)(F)F)C4)cc3)n2)cc1` (stereo not drawn) [CBK144562C]: 109%.
With `CS(=O)(=O)N1CC2(CCN(CC(=O)c3ccsc3)CC2)c2ccccc21` [CBK144595T], the viability at 28.5 h, 10 µM came to 87%.
Consider `CCNC(=O)N1CC2(CCN(CCC(N)=O)CC2)c2ccccc21` [CBK144598T], for which the viability at 28.5 h, 10 µM is 99.6%.
As for `CCNC(=O)N1CC2(CCN(CC(=O)c3ccsc3)CC2)c2ccccc21` [CBK144601T], the figure is 88.6%.
As for `O=C(CN1CCC2(CC1)CN(C(=O)CO)c1ccccc12)c1ccsc1` [CBK144605T], the figure is 86.8%.
Consider `OCCN1CC2(CCN(CCc3c[nH]c4ccccc34)CC2)c2ccccc21` [CBK144607T], for which the viability at 28.5 h, 10 µM amounted to 94.2%.
As for `CCc1cc(NCCc2ccc(=O)[nH]c2)nc(-c2ccc(Br)cc2)n1` [CBK144610C], the figure is 93.3%; as for `CS(=O)(=O)c1ccc(-c2ccc3c(c2)COC(C2CCN(C(=O)OCc4ccccc4)CC2)O3)cc1` (stereo not drawn) [CBK144643], 87.9%.
For `O=C(OCc1ccccc1)N1CCC(C2OCc3ccc(-c4ccc(Cl)c(Cl)c4)cc3O2)CC1` (stereo not drawn) [CBK144646], the viability at 28.5 h, 10 µM worked out at 109%.
Next, `CN(C)C(=O)c1ccc(-c2ccc3c(c2)OC(C2CCN(C(=O)OCc4ccccc4)CC2)OC3)cc1` (stereo not drawn) [CBK144649]: 85.5%; `O=C(Cc1c(F)cccc1F)Nc1ccc2[nH]ccc2c1` [CBK144712]: 120%; `O=C(Nc1cccc(-c2nnn[nH]2)c1)c1ccc(Cl)c(Cl)c1` [CBK144713]: 89.3%.
Consider `CN1CCN(C(=O)c2ccc(-c3cncc(-c4cc5ccccc5[nH]4)n3)c(F)c2)CC1` [CBK144906], for which the viability at 28.5 h, 10 µM stood at 92.8%.
As for `Cc1nc2ccccc2c(SCCC(=O)O)c1Cc1ccccc1` [CBK144942T], the figure is 88.9%; as for `NC1=NN(c2ccccc2)C(=O)C1` [CBK144946], 97.3%.
Consider `CN(C)CCN(Cc1ccccc1)C(=O)NCc1cccnc1` [CBK145048], for which the viability at 28.5 h, 10 µM is 89.6%.
For `CCN(Cc1ccncc1)C(=O)NCCN1CCOCC1` [CBK145055], the viability at 28.5 h, 10 µM was 92.1%.
As for `COc1ccccc1-c1ncc(OCCN2CCOCC2)nc1N` [CBK145072], the viability at 28.5 h, 10 µM was 113%.
Take `COc1ccc(-c2ncc(OCc3cccs3)nc2N)c(OC)c1` [CBK145088]: the viability at 28.5 h, 10 µM turned out to be 84%.
Next, `COc1ccc(-c2ncc(OCC3CCCN3C)nc2N)c(OC)c1` (stereo not drawn) [CBK145091]: 88.9%; `Nc1nc(OCCOc2ccccc2)cnc1-c1ccc2c(c1)OCO2` [CBK145097]: 83.4%; `COCOc1ccc(-c2ncc(OCCN3CCOCC3)nc2N)cc1` [CBK145100]: 87.7%.
As for `COCc1cccc(-c2ncc(OCCN3CCCC3=O)nc2N)c1` [CBK145110], the figure is 93.6%; as for `COCc1cccc(-c2ncc(OCC3COc4ccccc4O3)nc2N)c1` (stereo not drawn) [CBK145113], 93.1%.
Take `CC(=O)Nc1cccc(Oc2cnc(-c3ccc(OC(F)(F)F)cc3)c(N)n2)c1` [CBK145119]: the viability at 28.5 h, 10 µM was 91.9%.
As for `Nc1nc(OCc2ccc3c(c2)OCO3)cnc1/C=C/c1ccccc1` [CBK145123], the figure is 92.7%; as for `Cc1ccc(-c2ncc(OCc3ccccc3)nc2N)c(C)c1` [CBK145129], 90.6%.
As for `Cc1ccc(-c2ncc(OCC3CCCN3C)nc2N)c(C)c1` (stereo not drawn) [CBK145137], the figure is 99.2%.
As for `Cc1ccc(-c2ncc(OCCC(C)C)nc2N)cc1C` [CBK145145], the figure is 90.5%; as for `Cc1ccc(-c2ncc(OCc3cccs3)nc2N)cc1C` [CBK145146], 101%; as for `Cc1ccc(-c2ncc(OCCn3ccnc3)nc2N)cc1C` [CBK145148], 102%.
Take `Cc1ccc(-c2ncc(OCCN(C(C)C)C(C)C)nc2N)cc1C` [CBK145150]: the viability at 28.5 h, 10 µM is 85.9%.
As for `Nc1nc(OCCn2cccc2)cnc1-c1ccsc1` [CBK145162], the figure is 92.1%.
Regarding `Cn1cc(-c2ncc(OCCc3c[nH]c4ccccc34)nc2N)cn1` [CBK145166], the viability at 28.5 h, 10 µM stood at 88.3%.
In the case of `Cn1cc(-c2ncc(OCc3ccc4c(c3)OCO4)nc2N)cn1` [CBK145168], the viability at 28.5 h, 10 µM turned out to be 105%.
Next, `Cn1cc(-c2ncc(OCCn3cccc3)nc2N)cn1` [CBK145170]: 107%; `COc1cccc(Oc2cnc(-c3cccc(C(F)(F)F)c3)c(N)n2)c1` [CBK145177]: 94.2%.
On to `CN(C)C(=O)c1ccc(-c2ncc(OCCN3CCOCC3)nc2N)cc1` [CBK145183], for which the viability at 28.5 h, 10 µM was determined as 93.1%.
Next, `CN(C)C(=O)c1ccc(-c2ncc(OCCN3CCCC3=O)nc2N)cc1` [CBK145184]: 97.5%; `Cn1c(=O)c2c(ncn2CCOc2cnc(-c3cnn(Cc4ccccc4)c3)c(N)n2)n(C)c1=O` [CBK145193]: 97.4%.
Consider `Nc1nc(OCc2ccncc2)cnc1-c1cnn(Cc2ccccc2)c1` [CBK145194], for which the viability at 28.5 h, 10 µM turned out to be 96.7%.
Next, `CN1CCN(C(=O)c2cccc(-c3ncc(OCC(F)(F)F)nc3N)c2)CC1` [CBK145196]: 91.3%.
As for `Nc1nc(OCCN2CCCC2=O)cnc1-c1cc(Cl)cc(Cl)c1` [CBK145199], the figure is 89.3%; as for `CCC(CC)C(=O)Nc1nc(OC)cnc1-c1ccc(OCOC)cc1` [CBK145207], 108%; as for `COc1ccc(CC(=O)Nc2nc(OC)cnc2/C=C\c2ccccc2)cc1` [CBK145224], 98.7%.
As for `COCc1cccc(-c2ncc(OC)nc2NC(=O)c2c(C)noc2C)c1` [CBK145237], the figure is 95.6%.
Turning to `COCc1cccc(-c2ncc(OCCN3CCCC3=O)nc2NC(C)=O)c1` [CBK145239], the viability at 28.5 h, 10 µM was 94.8%.
In the case of `COCOc1ccc(-c2ncc(OC)nc2NC(=O)c2cc(C)oc2C)cc1` [CBK145249], the viability at 28.5 h, 10 µM is 97.6%.
Next, `COCOc1ccc(-c2ncc(OC)nc2NC(=O)c2cc3ccccc3s2)cc1` [CBK145250]: 103%; `COc1cnc(-c2ccccc2OC)c(NC(C)=O)n1` [CBK145259]: 89.1%.

In general, viability refers to a read-out of living cells in per cent, often relative to untreated cells.
